Experiment [1] concerns the target T1, CYP2C9 (Homo sapiens, UniProt P11712).
T1 construct: purchased Invitrogen 2859; host or cells: insect cells infected with baculovirus (microsomes)
As to the kind of experiment: Biological Test Example 9: CYP2C9 inhibition (Invitrogen kit, fluorogenic OOMR). The experiment is classed as in vitro ADME.

The target of another experiment is CYP2C19 (Homo sapiens, UniProt P33261). Nature of the experiment: Biological Test Example 8: CYP2C19 inhibition (diazepam N-demethylation). The experiment is classed as in vitro ADME.
CYP2C19, sequence (P33261 whole entry): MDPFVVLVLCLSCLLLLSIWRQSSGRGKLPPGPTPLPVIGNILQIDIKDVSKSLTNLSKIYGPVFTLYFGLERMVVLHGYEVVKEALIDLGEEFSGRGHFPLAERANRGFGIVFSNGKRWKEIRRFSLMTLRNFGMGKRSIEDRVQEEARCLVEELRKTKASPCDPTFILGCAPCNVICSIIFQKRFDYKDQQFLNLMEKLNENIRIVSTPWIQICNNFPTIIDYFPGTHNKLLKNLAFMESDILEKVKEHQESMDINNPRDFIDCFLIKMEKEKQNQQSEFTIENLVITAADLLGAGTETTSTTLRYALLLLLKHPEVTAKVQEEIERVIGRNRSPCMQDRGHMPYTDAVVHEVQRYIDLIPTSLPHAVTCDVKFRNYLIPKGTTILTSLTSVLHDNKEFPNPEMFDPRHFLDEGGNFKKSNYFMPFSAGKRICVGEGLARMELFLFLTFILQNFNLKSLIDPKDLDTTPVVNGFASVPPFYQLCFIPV
Experiment [2] has as its target T2, 11β-HSD1 (Homo sapiens, UniProt P28845). As to the kind of experiment: Biological Test Example 4: microsomal 11β-HSD1 in the presence of 50% human plasma. The conditions noted are these: for Shift: IC50 in Test Example 4 divided by IC50 in Test Example 1.
Experiment [3] concerns the target T1, CYP2C9. Nature of the experiment: Biological Test Example 7: CYP2C9 inhibition (naproxen O-demethylation). The experiment is classed as in vitro ADME.
Experiment [4] concerns the target T2, 11β-HSD1. As to the kind of experiment: biochemical. The conditions noted are these: for IC50: Biological Test Example 1 IC50 (nM); for pIC50: IC50 Range, Biological Test Example 1; for inhibition at 0.1 µM: read-out: Average % inhibition at 100 nM.
The target in the next experiment is CYP3A4 (Homo sapiens, UniProt P08684). As to the kind of experiment: Biological Test Example 6: CYP3A4 inhibition (erythromycin N-demethylation). Type of experiment: in vitro ADME.
CYP3A4, sequence (P08684 whole entry): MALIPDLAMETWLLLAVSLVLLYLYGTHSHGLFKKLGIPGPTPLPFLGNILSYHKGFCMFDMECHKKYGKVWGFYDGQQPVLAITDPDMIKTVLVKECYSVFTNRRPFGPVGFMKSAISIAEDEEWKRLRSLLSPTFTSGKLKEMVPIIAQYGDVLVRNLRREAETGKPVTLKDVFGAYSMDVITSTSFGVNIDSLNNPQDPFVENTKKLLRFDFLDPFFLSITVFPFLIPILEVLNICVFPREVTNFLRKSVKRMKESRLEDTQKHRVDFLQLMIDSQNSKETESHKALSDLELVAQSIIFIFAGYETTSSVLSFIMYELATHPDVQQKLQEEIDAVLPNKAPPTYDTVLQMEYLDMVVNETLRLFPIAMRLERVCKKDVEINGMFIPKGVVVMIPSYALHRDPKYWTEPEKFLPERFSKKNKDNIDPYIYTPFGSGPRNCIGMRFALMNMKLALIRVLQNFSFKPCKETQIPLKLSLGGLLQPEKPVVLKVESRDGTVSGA

pIC50: −log10 of the molar value. Bounds are passed on as bounds.

The term pIC50 denotes the negative decadic logarithm of the IC50, by convention in mol/L. In general, IC50 refers to the concentration needed to halve the response being measured. For orientation: inhibition means the percentage by which the read-out fell short of the control.

T1 sequence (P11712 whole entry): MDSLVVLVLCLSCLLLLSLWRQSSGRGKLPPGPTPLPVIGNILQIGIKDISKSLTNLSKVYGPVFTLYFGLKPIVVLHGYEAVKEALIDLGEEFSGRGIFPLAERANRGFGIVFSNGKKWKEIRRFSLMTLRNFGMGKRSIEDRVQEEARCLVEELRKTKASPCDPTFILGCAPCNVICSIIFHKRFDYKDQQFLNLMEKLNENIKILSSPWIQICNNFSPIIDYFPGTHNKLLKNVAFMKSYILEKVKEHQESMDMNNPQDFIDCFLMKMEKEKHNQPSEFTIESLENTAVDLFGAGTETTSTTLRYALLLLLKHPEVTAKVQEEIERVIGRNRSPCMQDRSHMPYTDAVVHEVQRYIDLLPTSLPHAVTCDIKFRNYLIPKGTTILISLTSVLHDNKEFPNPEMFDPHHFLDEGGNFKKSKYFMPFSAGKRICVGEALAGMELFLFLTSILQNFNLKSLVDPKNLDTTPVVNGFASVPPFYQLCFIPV
T2 sequence (P28845 whole entry): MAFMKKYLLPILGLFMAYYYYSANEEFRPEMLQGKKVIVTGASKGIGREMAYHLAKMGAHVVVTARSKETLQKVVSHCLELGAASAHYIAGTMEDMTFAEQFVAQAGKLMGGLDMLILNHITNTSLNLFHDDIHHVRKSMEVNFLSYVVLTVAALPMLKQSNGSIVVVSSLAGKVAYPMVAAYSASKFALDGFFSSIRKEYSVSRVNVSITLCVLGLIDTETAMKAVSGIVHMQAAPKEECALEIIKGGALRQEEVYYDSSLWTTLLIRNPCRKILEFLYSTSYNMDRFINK

`C[C@@H](c1ccc(-c2ccncn2)cc1)N1CC[C@](CC(C)(C)O)(c2ccccc2)OC1=O` [EXAMPLE 131, (S)-6-(2-hydroxy-2-methylpropyl)-6-phenyl-3-((S)-1-(4-(pyrimidin-4-yl)phenyl)ethyl)-1,3-oxazinan-2-one]: the pIC50 against CYP2C9 [1] is 4.95; against CYP2C19 it was 5.59; at 11β-HSD1 [2], 8.29; at CYP2C9 [3], 4.85; at 11β-HSD1 [4] it was over 7.00; at CYP3A4, 5.25. On 11β-HSD1 [4], this compound gave a half-maximal inhibitory concentration (IC50) of 2.2 nM. The inhibition at 0.1 µM on 11β-HSD1 [4] is 98.5%.
Turning to `Cc1cc(-c2ccc([C@H](C)N3CC[C@](CCCNS(C)(=O)=O)(c4ccc(F)cc4)OC3=O)cc2)ccn1` [EXAMPLE 80, N-(3-((R)-6-(4-fluorophenyl)-3-((S)-1-(4-(2-methylpyridin-4-yl)phenyl)ethyl)-2-oxo-1,3-oxazinan-6-yl)propyl)methanesulfonamide], the pIC50 on CYP2C9 [1] was 5.05; at CYP2C19 it was 4.88; at 11β-HSD1 [2] it was 8.26; against CYP2C9 [3], 4.95; against 11β-HSD1 [4], over 7.00; at CYP3A4, 4.89. Further, the Shift at 11β-HSD1 [2] turned out to be 5.4. This compound also came in with an IC50 on 11β-HSD1 [4] of 1 nM. In addition, the inhibition at 0.1 µM at 11β-HSD1 [4] amounted to 96%.
In the case of `C[C@@H](c1ccc(-c2cnc(C(=O)NC3CC3)nc2)cc1)N1CC[C@](CC(C)(C)C#N)(c2ccccc2)OC1=O` [EXAMPLE 16, 5-(4-((S)-1-((R)-6-(2-cyano-2-methylpropyl)-2-oxo-6-phenyl-1,3-oxazinan-3-yl)ethyl)phenyl)-N-cyclopropylpyrimidine-2-carboxamide], the pIC50 was 5.21 against CYP2C19; 8.26 on 11β-HSD1 [2]; under 4.30 at CYP2C9 [3]; over 7.00 at 11β-HSD1 [4]; 4.60 on CYP3A4. Also, the Shift at 11β-HSD1 [2] was 6.9. This compound displayed an IC50 against 11β-HSD1 [4] of 0.8 nM. For the same compound, the inhibition at 0.1 µM on 11β-HSD1 [4] is 97.9%.
Regarding `C[C@@H](c1ccc(-c2cnc(C(=O)NC3CC3)nc2)cc1)N1CC[C@](CC(C)(C)O)(c2ccccc2)OC1=O` [EXAMPLE 15, N-cyclopropyl-5-(4-((S)-1-((S)-6-(2-hydroxy-2-methylpropyl)-2-oxo-6-phenyl-1,3-oxazinan-3-yl)ethyl)phenyl)pyrimidine-2-carboxamide], the pIC50 was 4.90 on CYP2C19; 8.38 at 11β-HSD1 [2]; under 4.30 against CYP2C9 [3]; over 7.00 against 11β-HSD1 [4]; under 4.30 at CYP3A4. Further, the Shift on 11β-HSD1 [2] turned out to be 2.4. At 11β-HSD1 [4], this compound had an IC50 of 1.7 nM. The inhibition at 0.1 µM at 11β-HSD1 [4] came to 94.1%.
Consider `Cc1cc(-c2ccc([C@H](C)N3CC[C@](CC(C)(C)O)(c4ccc(F)cc4)OC3=O)cc2)cc(C)n1` [EXAMPLE 144, (S)-3-((S)-1-(4-(2,6-dimethylpyridin-4-yl)phenyl)ethyl)-6-(4-fluorophenyl)-6-(2-hydroxy-2-methylpropyl)-1,3-oxazinan-2-one], for which the pIC50 is 5.02 against CYP2C19; 7.92 on 11β-HSD1 [2]; 4.99 at CYP2C9 [3]; over 7.00 against 11β-HSD1 [4]; 4.92 against CYP3A4. The Shift at 11β-HSD1 [2] was 9.8. Besides, at 11β-HSD1 [4], the IC50 was determined as 1.2 nM. Also, on 11β-HSD1 [4], the inhibition at 0.1 µM is 98.6%.
Regarding `C[C@@H](c1ccc(-c2ccc(C#N)cn2)cc1)N1CC[C@](CCCO)(c2ccc(F)cc2)OC1=O` [EXAMPLE 101, 6-(4-((S)-1-((R)-6-(4-fluorophenyl)-6-(3-hydroxypropyl)-2-oxo-1,3-oxazinan-3-yl)ethyl)phenyl)nicotinonitrile], the pIC50 against CYP2C19 was under 4.30; on 11β-HSD1 [2], 8.12; against CYP2C9 [3], 5.00; against 11β-HSD1 [4], over 7.00; against CYP3A4 it was under 4.30. For the same compound, the Shift at 11β-HSD1 [2] amounted to 6.0. This compound also came in with an IC50 against 11β-HSD1 [4] of 1.2 nM. Besides, on 11β-HSD1 [4], the inhibition at 0.1 µM came to 100%.
In the case of `C[C@@H](c1ccc(-c2ccc(C(=O)NC(C)(C)C)cn2)cc1)N1CC[C@](CC(C)(C)C#N)(c2ccccc2)OC1=O` [EXAMPLE 3, N-tert-butyl-6-(4-((S)-1-((R)-6-(2-cyano-2-methylpropyl)-2-oxo-6-phenyl-1,3-oxazinan-3-yl)ethyl)phenyl)nicotinamide], the pIC50 is 5.52 on CYP2C19; 8.10 on 11β-HSD1 [2]; 5.60 against CYP2C9 [3]; over 7.00 against 11β-HSD1 [4]; 5.68 against CYP3A4. Also, the Shift at 11β-HSD1 [2] is given as 8.0. The compound further gave an IC50 against 11β-HSD1 [4] of 1 nM. Also, the inhibition at 0.1 µM at 11β-HSD1 [4] was found to be 96.8%.
`C[C@@H](c1ccc(-c2ccc(C(=O)NC3CC3)cn2)cc1)N1CC[C@](CC(C)(C)O)(c2ccccc2)OC1=O` [EXAMPLE 161, N-cyclopropyl-6-(4-((S)-1-((S)-6-(2-hydroxy-2-methylpropyl)-2-oxo-6-phenyl-1,3-oxazinan-3-yl)ethyl)phenyl)nicotinamide]: the negative logarithm of the IC50 (pIC50) against CYP2C19 is 4.98; on 11β-HSD1 [2] it was 8.41; on CYP2C9 [3], 4.44; against 11β-HSD1 [4], over 7.00; at CYP3A4 it was under 4.30. In addition, the IC50 against 11β-HSD1 [4] amounted to 1.1 nM. The inhibition at 0.1 µM on 11β-HSD1 [4] is 95.1%.
Turning to `COc1ccc(-c2ccc([C@H](C)N3CC[C@](CC(C)(C)O)(c4ccccc4)OC3=O)cc2)cn1` [EXAMPLE 93, (S)-6-(2-hydroxy-2-methylpropyl)-3-((S)-1-(4-(6-methoxypyridin-3-yl)phenyl)ethyl)-6-phenyl-1,3-oxazinan-2-one], the pIC50 against CYP2C9 [1] is 5.10; against CYP2C19, 4.94; at CYP2C9 [3] it was 5.10; against CYP3A4, 4.94.
Regarding `Cc1cc(-c2ccc([C@H](C)N3CC[C@](CC(C)(C)O)(c4ccccc4)OC3=O)cc2)cc(C)n1` [EXAMPLE 139, (S)-3-((S)-1-(4-(2,6-dimethylpyridin-4-yl)phenyl)ethyl)-6-(2-hydroxy-2-methylpropyl)-6-phenyl-1,3-oxazinan-2-one], the pIC50 against CYP2C9 [1] was 5.00; on CYP2C19, 4.74; against CYP2C9 [3] it was 4.67; on CYP3A4, under 4.30.
Regarding `Cc1ccc(-c2ccc([C@H](C)N3CC[C@](CC(C)(C)C#N)(c4ccccc4)OC3=O)cc2)nn1` [EXAMPLE 166, 2,2-dimethyl-3-((R)-3-((S)-1-(4-(6-methylpyridazin-3-yl)phenyl)ethyl)-2-oxo-6-phenyl-1,3-oxazinan-6-yl)propanenitrile], the pIC50 was 4.40 at CYP2C19; 8.64 at 11β-HSD1 [2]; 5.05 on CYP2C9 [3]; over 7.00 against 11β-HSD1 [4]; 4.68 at CYP3A4. On 11β-HSD1 [2], the Shift is reported as 2.3. The compound also yielded an IC50 against 11β-HSD1 [4] of 1 nM. The inhibition at 0.1 µM at 11β-HSD1 [4] came out at 96.5%.
With `CCOc1ncc(-c2ccc([C@H](C)N3CC[C@](CC(C)(C)O)(c4ccccc4)OC3=O)cc2)cc1C` [EXAMPLE 160, (S)-3-((S)-1-(4-(6-ethoxy-5-methylpyridin-3-yl)phenyl)ethyl)-6-(2-hydroxy-2-methylpropyl)-6-phenyl-1,3-oxazinan-2-one], the pIC50 at CYP2C19 is 5.77; at 11β-HSD1 [2], 7.76; against CYP2C9 [3], 5.64; on 11β-HSD1 [4] it was over 7.00; on CYP3A4 it was 5.35. Further, the Shift on 11β-HSD1 [2] is 17.5. Inhibition against 11β-HSD1 [4] was half-maximal at 1 nM (IC50). For the same compound, on 11β-HSD1 [4], the inhibition at 0.1 µM came to 95%.
Turning to `C[C@@H](c1ccc(-c2ccc(C(=O)N(C)C)cn2)cc1)N1CC[C@](CC(C)(C)O)(c2ccccc2)OC1=O` [EXAMPLE 156, 6-(4-((S)-1-((S)-6-(2-hydroxy-2-methylpropyl)-2-oxo-6-phenyl-1,3-oxazinan-3-yl)ethyl)phenyl)-N,N-dimethylnicotinamide], the pIC50 at CYP2C19 is 4.32; at 11β-HSD1 [2], 8.00; on CYP2C9 [3], under 4.30; at 11β-HSD1 [4], over 7.00; on CYP3A4, under 4.30. The compound also returned an IC50 against 11β-HSD1 [4] of 1.1 nM. The inhibition at 0.1 µM on 11β-HSD1 [4] was 96.4%.
Consider `C[C@@H](c1ccc(-c2ccc(C(=O)NC3CC3)nn2)cc1)N1CC[C@](CC(C)(C)O)(c2ccccc2)OC1=O` [EXAMPLE 10, N-cyclopropyl-6-(4-((S)-1-((S)-6-(2-hydroxy-2-methylpropyl)-2-oxo-6-phenyl-1,3-oxazinan-3-yl)ethyl)phenyl)pyridazine-3-carboxamide], for which the pIC50 on CYP2C19 is 4.84; on 11β-HSD1 [2] it was 8.12; against CYP2C9 [3], 4.67; against 11β-HSD1 [4], over 7.00; against CYP3A4 it was 4.46. Besides, the IC50 against 11β-HSD1 [4] was determined as 2.5 nM. Also, the inhibition at 0.1 µM at 11β-HSD1 [4] was determined as 93.6%.
On to `Cc1nnc(-c2ccc([C@H](C)N3CC[C@](CC(C)(C)O)(c4ccccc4)OC3=O)cc2)s1` [EXAMPLE 172, (S)-6-(2-Hydroxy-2-methyl-propyl)-3-{(S)-1-[4-(5-methyl-[1,3,4]thiadiazol-2-yl)-phenyl]-ethyl}-6-phenyl-[1,3]oxazinan-2-one], for which the pIC50 was 4.35 against CYP2C19; 7.97 on 11β-HSD1 [2]; 4.42 against CYP2C9 [3]; over 7.00 at 11β-HSD1 [4]; under 4.30 against CYP3A4. This compound gave an IC50 on 11β-HSD1 [4] of 3.3 nM. The inhibition at 0.1 µM at 11β-HSD1 [4] amounted to 97.9%.
Take `C[C@@H](c1ccc(-c2nc(C(=O)NC3CC3)cs2)cc1)N1CC[C@](CC(C)(C)O)(c2ccccc2)OC1=O` [EXAMPLE 19, N-cyclopropyl-2-(4-((S)-1-((S)-6-(2-hydroxy-2-methylpropyl)-2-oxo-6-phenyl-1,3-oxazinan-3-yl)ethyl)phenyl)thiazole-4-carboxamide]: the pIC50 against CYP2C19 is 4.99; at 11β-HSD1 [2] it was 7.70; against CYP2C9 [3], 4.50; against 11β-HSD1 [4] it was over 7.00; on CYP3A4, 4.57. Besides, the Shift at 11β-HSD1 [2] was determined as 10.4. Besides, the IC50 against 11β-HSD1 [4] is 1.9 nM. For the same compound, on 11β-HSD1 [4], the inhibition at 0.1 µM was 94.6%.

These data come from US8569292B2, “Cyclic inhibitors of 11β-hydroxysteroid dehydrogenase 1” (Vitae Pharmaceuticals, Inc., priority 2008, dated 2013).
